Laboratory results reported in BindingDB's records for doi:10.1016/0028-3908(96)84644-2 (Abbott Laboratories, 1996).
Where “and” joins values, the source holds several entries; their conditions need not be identical. Equal entries are not always repeated.

Legend:
Somatostatin = Somatostatin (Rattus norvegicus, UniProt P60042)
Glutamate receptor 3 = Glutamate receptor 3 (Homo sapiens, UniProt P42263)
[1] = biological target: Gamma-aminobutyric acid receptor subunit alpha-1 (Homo sapiens, UniProt P14867)
Substance-P receptor = Substance-P receptor (Homo sapiens, UniProt P25103)
[2] = biological target: 5-hydroxytryptamine receptor 1A (Homo sapiens, UniProt P08908)
[3] = biological target: Solute carrier family 22 member 1 (Rattus norvegicus, UniProt Q63089)
[4] = biological target: Gamma-aminobutyric acid type B receptor subunit 1 (UniProt Q9Z0U4)
[5] = biological target: Glutamate receptor ionotropic, NMDA 1 (Rattus norvegicus, UniProt P35439)
Adenosine receptor A1 = Adenosine receptor A1 (Homo sapiens, UniProt P30542)
[6] = biological target: Sodium-dependent noradrenaline transporter (Homo sapiens, UniProt P23975)
[7] = biological target: Glutamate receptor ionotropic, kainate 2 (Homo sapiens, UniProt Q13002)
Protein kinase C = Protein kinase C (Drosophila melanogaster, UniProt P13678)
[8] = biological target: Chloride channel protein 1 (Homo sapiens, UniProt P35523)
Apamin = Apamin (Apis mellifera, UniProt P01500)
[9] = biological target: Gamma-aminobutyric acid type B receptor subunit 1 (Homo sapiens, UniProt Q9UBS5)
[10] = biological target: ATP-sensitive inward rectifier potassium channel 11 (Homo sapiens, UniProt Q14654)
[11] = biological target: Potassium voltage-gated channel subfamily A member 1 (Homo sapiens, UniProt Q09470)
Mu-type opioid receptor = Mu-type opioid receptor (Rattus norvegicus, UniProt P33535)
[12] = biological target: 5-hydroxytryptamine receptor 1B (Canis lupus familiaris, UniProt P79250)
[13] = biological target: Delta-type opioid receptor (Homo sapiens, UniProt P41143)
[14] = biological target: Kappa-type opioid receptor (Homo sapiens, UniProt P41145)
Beta-nerve growth factor = Beta-nerve growth factor (Homo sapiens, UniProt P01138)
[15] = biological target: Sodium channel protein type 2 subunit alpha (Homo sapiens, UniProt Q99250)
[16] = biological target: Voltage-dependent T-type calcium channel subunit alpha-1H (Homo sapiens, UniProt O95180)
[17] = biological target: Acetylcholine receptor subunit alpha (Rattus norvegicus, UniProt P25108)
Substance-K receptor = Substance-K receptor (Bos taurus, UniProt P05363)
[18] = biological target: Neuronal acetylcholine receptor subunit alpha-7 (Homo sapiens, UniProt P36544)
[19] = biological target: Adrenergic alpha2 receptor (Mesocricetus auratus, UniProt Q60533)
[20] = biological target: Sodium-dependent dopamine transporter (Homo sapiens, UniProt Q01959)
GLRA1 protein = GLRA1 protein (Homo sapiens, UniProt Q14C71)
[21] = biological target: Voltage-dependent N-type calcium channel subunit alpha-1B (Rattus norvegicus, UniProt Q02294)
[22] = biological target: 5-hydroxytryptamine receptor 1A/1B/1D/2C (Homo sapiens, UniProt P08908+P28221+P28222+P28335)
Adenosine receptor A2a = Adenosine receptor A2a (Homo sapiens, UniProt P29274)
[23] = biological target: Putative choline uptake ABC transporter permease protein (Rhizobium meliloti (strain 1021), UniProt Q92V96)
[24] = biological target: Neuronal acetylcholine receptor subunit alpha-4 (Homo sapiens, UniProt P43681)
D(2) dopamine receptor = D(2) dopamine receptor (Homo sapiens, UniProt P14416)
[25] = biological target: Beta-2 adrenergic receptor (Mus musculus, UniProt P18762)
[26] = biological target: 5-hydroxytryptamine receptor 2C (Homo sapiens, UniProt P28335)
Neuromedin-K receptor = Neuromedin-K receptor (Homo sapiens, UniProt P29371)

Chain of Acetylcholine receptor subunit alpha (P25108 whole entry): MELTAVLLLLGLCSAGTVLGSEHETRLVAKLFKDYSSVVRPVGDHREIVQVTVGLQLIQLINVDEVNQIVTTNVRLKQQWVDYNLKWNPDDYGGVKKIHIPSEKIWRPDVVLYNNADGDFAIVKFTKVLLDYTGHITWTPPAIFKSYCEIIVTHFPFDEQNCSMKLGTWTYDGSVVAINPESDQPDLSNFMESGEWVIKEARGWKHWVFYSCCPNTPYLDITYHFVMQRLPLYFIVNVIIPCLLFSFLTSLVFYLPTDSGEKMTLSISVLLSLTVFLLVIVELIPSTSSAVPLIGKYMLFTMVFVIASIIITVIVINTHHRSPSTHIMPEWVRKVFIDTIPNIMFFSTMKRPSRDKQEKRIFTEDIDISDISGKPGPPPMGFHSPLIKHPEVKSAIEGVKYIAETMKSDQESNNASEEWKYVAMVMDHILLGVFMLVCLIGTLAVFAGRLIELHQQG
Chain of Neuronal acetylcholine receptor subunit alpha-7 (P36544 whole entry): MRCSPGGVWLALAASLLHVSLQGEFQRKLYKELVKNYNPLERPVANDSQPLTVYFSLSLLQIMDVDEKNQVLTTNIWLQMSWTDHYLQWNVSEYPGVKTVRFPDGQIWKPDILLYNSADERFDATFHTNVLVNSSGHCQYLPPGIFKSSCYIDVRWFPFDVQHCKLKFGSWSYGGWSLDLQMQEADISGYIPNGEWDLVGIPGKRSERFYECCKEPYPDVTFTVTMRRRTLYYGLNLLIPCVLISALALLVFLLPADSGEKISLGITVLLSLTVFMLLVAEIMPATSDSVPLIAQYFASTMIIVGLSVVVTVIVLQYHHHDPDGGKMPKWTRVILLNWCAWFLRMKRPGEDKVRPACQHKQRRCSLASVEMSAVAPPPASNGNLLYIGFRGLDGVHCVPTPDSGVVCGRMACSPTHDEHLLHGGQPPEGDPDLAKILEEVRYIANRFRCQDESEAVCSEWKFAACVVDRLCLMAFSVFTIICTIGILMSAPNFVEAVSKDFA
Chain of Putative choline uptake ABC transporter permease protein (Q92V96 whole entry): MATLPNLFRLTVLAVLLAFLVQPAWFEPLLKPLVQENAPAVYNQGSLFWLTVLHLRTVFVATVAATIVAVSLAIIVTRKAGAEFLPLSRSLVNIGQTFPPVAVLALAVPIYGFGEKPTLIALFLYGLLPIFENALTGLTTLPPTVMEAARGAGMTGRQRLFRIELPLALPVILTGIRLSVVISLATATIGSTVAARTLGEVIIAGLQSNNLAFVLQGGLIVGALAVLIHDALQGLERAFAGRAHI
Chain of Gamma-aminobutyric acid type B receptor subunit 1 (UniProt Q9Z0U4) (Q9Z0U4 whole entry): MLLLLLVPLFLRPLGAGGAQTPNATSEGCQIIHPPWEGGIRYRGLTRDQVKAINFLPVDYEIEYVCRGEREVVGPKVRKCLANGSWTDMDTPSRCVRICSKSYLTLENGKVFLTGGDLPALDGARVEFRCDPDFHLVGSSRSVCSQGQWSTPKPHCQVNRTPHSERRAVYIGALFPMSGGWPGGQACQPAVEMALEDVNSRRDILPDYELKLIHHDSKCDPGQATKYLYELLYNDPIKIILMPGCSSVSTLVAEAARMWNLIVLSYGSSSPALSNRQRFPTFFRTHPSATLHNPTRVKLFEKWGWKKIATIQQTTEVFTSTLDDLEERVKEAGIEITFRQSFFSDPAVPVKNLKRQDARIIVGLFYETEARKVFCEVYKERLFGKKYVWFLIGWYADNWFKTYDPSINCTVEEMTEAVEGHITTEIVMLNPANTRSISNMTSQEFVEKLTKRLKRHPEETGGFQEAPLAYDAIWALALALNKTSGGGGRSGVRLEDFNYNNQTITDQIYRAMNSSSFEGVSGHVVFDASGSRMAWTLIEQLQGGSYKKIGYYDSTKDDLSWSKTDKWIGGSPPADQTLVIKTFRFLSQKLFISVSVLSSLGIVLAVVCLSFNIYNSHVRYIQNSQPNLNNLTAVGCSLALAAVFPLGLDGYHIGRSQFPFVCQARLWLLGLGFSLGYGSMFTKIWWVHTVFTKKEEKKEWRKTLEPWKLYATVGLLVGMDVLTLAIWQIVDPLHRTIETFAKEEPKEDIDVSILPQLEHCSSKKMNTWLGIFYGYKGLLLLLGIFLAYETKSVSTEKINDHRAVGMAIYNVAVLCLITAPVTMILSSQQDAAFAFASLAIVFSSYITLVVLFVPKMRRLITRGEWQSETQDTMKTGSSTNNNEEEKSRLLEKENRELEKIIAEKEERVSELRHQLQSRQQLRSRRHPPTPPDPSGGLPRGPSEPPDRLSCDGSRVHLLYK
Chain of Solute carrier family 22 member 1 (Q63089 whole entry): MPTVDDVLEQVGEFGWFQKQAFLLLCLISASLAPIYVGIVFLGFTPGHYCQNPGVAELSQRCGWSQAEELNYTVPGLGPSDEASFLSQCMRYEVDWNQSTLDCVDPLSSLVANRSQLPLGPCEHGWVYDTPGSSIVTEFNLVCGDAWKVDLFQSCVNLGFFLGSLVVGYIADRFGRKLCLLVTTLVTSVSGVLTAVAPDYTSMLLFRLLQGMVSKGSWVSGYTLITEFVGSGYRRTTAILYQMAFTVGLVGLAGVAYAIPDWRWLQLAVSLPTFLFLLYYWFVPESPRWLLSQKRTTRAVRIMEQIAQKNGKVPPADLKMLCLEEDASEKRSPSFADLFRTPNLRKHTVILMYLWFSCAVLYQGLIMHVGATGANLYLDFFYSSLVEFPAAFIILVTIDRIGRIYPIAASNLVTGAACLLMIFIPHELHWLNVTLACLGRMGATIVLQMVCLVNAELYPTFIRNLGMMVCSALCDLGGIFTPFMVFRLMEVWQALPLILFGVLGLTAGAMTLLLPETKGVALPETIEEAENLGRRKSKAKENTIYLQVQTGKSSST
Chain of Substance-P receptor (P25103 whole entry): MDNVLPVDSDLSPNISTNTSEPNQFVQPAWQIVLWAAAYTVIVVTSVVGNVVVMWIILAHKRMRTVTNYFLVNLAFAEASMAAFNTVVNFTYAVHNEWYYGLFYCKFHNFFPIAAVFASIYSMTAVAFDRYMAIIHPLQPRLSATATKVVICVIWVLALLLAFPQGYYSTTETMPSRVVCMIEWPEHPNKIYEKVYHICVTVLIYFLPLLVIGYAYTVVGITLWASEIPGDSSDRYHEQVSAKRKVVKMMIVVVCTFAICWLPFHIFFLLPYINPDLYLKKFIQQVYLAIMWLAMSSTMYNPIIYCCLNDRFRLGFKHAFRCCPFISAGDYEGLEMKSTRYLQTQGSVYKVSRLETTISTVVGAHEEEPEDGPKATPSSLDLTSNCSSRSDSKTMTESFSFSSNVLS
Chain of Glutamate receptor ionotropic, kainate 2 (Q13002 whole entry): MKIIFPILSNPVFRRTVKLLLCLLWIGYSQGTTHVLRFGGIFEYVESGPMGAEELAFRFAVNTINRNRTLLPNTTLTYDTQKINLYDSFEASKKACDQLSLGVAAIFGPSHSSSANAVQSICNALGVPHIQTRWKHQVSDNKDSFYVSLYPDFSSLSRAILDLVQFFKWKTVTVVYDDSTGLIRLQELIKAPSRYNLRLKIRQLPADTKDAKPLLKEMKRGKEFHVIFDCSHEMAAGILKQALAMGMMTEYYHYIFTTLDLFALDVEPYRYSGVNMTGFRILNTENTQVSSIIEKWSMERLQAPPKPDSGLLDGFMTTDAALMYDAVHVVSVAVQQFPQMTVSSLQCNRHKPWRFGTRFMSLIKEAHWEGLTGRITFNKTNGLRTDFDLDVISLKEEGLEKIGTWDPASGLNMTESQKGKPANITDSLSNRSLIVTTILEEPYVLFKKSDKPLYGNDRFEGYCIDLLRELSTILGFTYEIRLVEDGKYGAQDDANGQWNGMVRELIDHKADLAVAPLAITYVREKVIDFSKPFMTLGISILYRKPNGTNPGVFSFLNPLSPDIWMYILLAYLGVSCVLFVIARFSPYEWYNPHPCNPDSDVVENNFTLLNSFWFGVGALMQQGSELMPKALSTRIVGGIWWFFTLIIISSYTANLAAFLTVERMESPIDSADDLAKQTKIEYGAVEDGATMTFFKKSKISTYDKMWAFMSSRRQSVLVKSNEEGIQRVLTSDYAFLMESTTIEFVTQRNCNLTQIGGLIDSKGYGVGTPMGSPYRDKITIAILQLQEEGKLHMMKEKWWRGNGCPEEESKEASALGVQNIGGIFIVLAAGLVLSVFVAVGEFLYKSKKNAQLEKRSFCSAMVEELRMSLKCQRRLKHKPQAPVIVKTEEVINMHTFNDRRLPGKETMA
Chain of Substance-K receptor (P05363 whole entry): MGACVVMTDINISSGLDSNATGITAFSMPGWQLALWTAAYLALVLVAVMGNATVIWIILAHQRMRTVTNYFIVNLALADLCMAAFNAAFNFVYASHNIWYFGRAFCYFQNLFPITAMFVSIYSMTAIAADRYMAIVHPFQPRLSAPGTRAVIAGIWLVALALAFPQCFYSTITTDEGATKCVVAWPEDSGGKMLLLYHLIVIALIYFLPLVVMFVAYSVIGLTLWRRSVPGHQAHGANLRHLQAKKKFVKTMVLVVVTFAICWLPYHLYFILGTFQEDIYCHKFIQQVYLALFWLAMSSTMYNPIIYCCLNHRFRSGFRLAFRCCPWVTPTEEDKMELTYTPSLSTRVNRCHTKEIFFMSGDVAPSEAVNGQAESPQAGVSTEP
Chain of Adrenergic alpha2 receptor (Q60533 whole entry): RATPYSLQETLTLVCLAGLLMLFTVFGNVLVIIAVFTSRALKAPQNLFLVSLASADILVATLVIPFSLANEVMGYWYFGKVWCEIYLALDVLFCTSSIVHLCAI
Chain of Beta-nerve growth factor (P01138 122-241 limits assumed): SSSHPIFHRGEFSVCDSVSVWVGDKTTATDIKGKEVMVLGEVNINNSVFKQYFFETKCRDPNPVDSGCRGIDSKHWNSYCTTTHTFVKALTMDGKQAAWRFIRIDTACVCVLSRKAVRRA
Chain of Adenosine receptor A1 (P30542 whole entry): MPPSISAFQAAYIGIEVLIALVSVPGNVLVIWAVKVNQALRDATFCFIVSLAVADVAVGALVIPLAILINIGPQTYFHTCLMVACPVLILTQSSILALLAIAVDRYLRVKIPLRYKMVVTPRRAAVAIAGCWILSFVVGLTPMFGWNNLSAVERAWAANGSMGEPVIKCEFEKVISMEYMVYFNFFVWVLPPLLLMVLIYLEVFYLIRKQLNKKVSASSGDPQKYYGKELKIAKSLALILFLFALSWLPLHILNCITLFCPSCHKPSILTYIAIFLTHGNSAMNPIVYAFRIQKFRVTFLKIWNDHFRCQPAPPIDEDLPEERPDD

Compound: c1cncc(OC[C@@H]2CCN2)c1
- Ki (Somatostatin): > 10 µM
- Ki (Glutamate receptor 3): > 10 µM
- Ki [1]: > 10 µM
- Ki (Substance-P receptor): > 10 µM
- Ki [2]: > 10 µM
- Ki [3]: > 10 µM
- Ki [4]: > 10 µM
- Ki [5]: > 10 µM
- Ki (Adenosine receptor A1): > 10 µM
- Ki [6]: > 10 µM
- Ki [7]: > 10 µM
- Ki (Protein kinase C): > 10 µM
- Ki [8]: > 10 µM
- Ki (Apamin): > 10 µM
- Ki [9]: > 10 µM
- Ki [10]: > 10 µM
- Ki [11]: > 10 µM
- Ki (Mu-type opioid receptor): > 10 µM
- Ki [12]: > 10 µM
- Ki [13]: > 10 µM
- Ki [14]: > 10 µM
- Ki (Beta-nerve growth factor): > 10 µM
- Ki [15]: > 10 µM
- Ki [16]: > 10 µM
- Ki [17]: 0.384 µM and 0.314 µM
- Ki (Substance-K receptor): > 10 µM
- Ki [18]: 1.27 µM and 0.148 µM
- Ki [19]: > 10 µM
- Ki [20]: > 10 µM
- Ki (GLRA1 protein): > 10 µM
- Ki [21]: > 10 µM
- Ki [22]: > 10 µM
- Ki (Adenosine receptor A2a): > 10 µM
- Ki [23]: > 10 µM
- Ki [24]: 0.04 nM
- Ki (D(2) dopamine receptor): > 10 µM
- Ki [25]: > 10 µM
- Ki [26]: > 10 µM
- Ki (Neuromedin-K receptor): > 10 µM

Compound: CN1CCC[C@H]1c1cccnc1 [(R,S)-nicotine]
- Ki [17]: > 10 µM
